Measurements published in patent US8865672B2, “Prevention of tissue ischemia and related methods” (The United States of America, as represented by the …, priority 2006, dated 2014).
Where a name gives a salt, the structure may show the parent alone.

How the values were obtained:
[1] = system: skeletal muscle blood oxygenation in mice; assay: BOLD MRI of hindlimb muscle after NO challenge; assay type: in vivo, mouse; conditions: for magnitude of increased BOLD MRI signal: DEA/NO 100 nmol/g intrarectal
Description: MRI images were acquired using a Bruker Biospin 4.7 T scanner and isoflurane anesthesia. Muscle tissue scanned was at rest, so alterations in oxygenation reflected changes in perfusion rather than in oxygen consumption (Krishna et al., Ilar J 42:209-218, 2001; Watterson et al., Cell Signal 17:289-298, 2005). MR measurements were started after the mouse's body temperature reached 37° C. Prior to the experiments, gradient echo based T1 sequence was used to determine the target slice location. A series of T2* weighted gradient echo blood oxygenation level dependent (BOLD) image data sets at transverse to the midpoint of the femur were repeatedly acquired for 30 min to monitor temporal changes in blood oxygenation and blood flow. DEA/NO (100 nmol/g body weight) was injected with saline via the rectal cannula 5.0 min after starting the scan. Imaging parameters used were: TR=450 ms, Flip angle=45, Nex=1, slice thickness=2 mm, matrix size=64×64, total imaging time for the series was 29 min.

cGK-I = biological target: T1, cGK-I (Homo sapiens, UniProt Q13976); assay: cGK in vitro kinase assay of platelet lysates; assay type: biochemical; conditions: activation via sGC using DEA/NO in intact platelets
T1 construct: endogenous in cells; host or cells: washed human platelets, treated intact, then lysed
T1 sequence (Q13976 1-686 isoform Q13976-2): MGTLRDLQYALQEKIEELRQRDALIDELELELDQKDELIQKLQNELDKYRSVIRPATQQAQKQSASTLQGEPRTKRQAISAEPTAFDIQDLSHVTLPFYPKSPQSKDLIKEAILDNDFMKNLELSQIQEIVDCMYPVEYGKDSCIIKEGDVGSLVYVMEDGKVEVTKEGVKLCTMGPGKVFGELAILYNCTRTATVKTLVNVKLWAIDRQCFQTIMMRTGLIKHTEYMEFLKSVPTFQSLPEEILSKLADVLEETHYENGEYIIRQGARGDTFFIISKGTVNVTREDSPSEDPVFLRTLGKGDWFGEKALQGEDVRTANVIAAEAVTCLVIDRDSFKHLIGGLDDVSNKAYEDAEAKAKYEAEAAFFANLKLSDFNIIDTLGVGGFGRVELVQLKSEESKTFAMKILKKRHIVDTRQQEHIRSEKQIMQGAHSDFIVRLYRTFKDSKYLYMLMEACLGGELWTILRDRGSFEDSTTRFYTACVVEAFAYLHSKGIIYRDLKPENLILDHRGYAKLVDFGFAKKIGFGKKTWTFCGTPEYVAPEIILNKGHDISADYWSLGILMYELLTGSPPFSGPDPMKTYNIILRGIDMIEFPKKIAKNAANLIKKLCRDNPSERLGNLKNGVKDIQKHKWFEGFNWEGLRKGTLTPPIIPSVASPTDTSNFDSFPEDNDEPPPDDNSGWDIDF
Description: Platelets were washed as described above and resuspended in Tyrode's buffer (3×10^8 platelets/mL). Platelets were preincubated with TSP1 (2.2 nM) or Rp-8-pCPT-cGMP for 15 minutes prior to treatment with 8-Br-cGMP (100 μM) or NO (DEA/NO 10 μM) for 2 minutes. Treatment was stopped by placing the platelets on ice. Immediately following treatment, platelets were pelleted by centrifugation at 13,000×g at 4° C. for 15 seconds and resuspended in a lysis buffer containing 10 mM HEPES (pH 7.4), 1 mM EDTA, 1 mM 3-Isobutyl-1-methylxanthine, 125 mM KCl, 1 mM phenylmethysulfonylfluoride, 1 μg/ml aprotinin, and 1 μg/ml leupeptin. Resuspended platelets were sonicated on ice 3 times for 10 seconds each before centrifugation at 13,000×g for 5 minutes at 4° C. 100 μg lysate from each sample was incubated at 25° C. for 20 minutes with kinase buffer (150 μM Arg-Lys-Arg-Ser-Arg-Ala-Glu (SEQ ID NO: 17) peptide substrate (Bachem, King of Prussia, Pa.)), 10 mM HEPES pH 7.4, 35 mM β-glycerophosphate, 4 mM MgCl2, 5 μM Rp-8 pCPT-cAMPS, 0.5 mM EDTA, […] [γ-32P]ATPS (Sigma-Aldrich, St. Louis, Mo.)). Kinase assay reactions were terminated by spotting 50 μL of reaction mixture onto nitrocellulose. Nitrocellulose spots were washed 5 times each with 100 μL of 0.5% phosphoric acid before analysis with a scintillation counter.

[2] = system: blood pressure and pulse in mice; assay: Blood pressure and pulse measurements (tail cuff); assay type: in vivo, mouse; conditions: for blood pressure response: i.p.; for mean pulse: after i.p. challenge
Description: Mean systolic, diastolic and arterial blood pressure (BP) and mean pulse was measured in age and sex matched mice using a computerized tail cuff system (Hatteras Systems, MC4000 Blood Pressure Analysis System, Cary, N.C.). The mice were allowed to acclimate to the apparatus for 5 min prior to the start of measurement. Each animal underwent a cycle of 10 preliminary and 50 experimental pressures measurements for data acquisition and data calculation. Animals were acclimated to the measuring system and protocol for 4 days with treatment with data acquisition being performed on the 5th day. Pressures recordings were performed at the same time each day. Data was accepted if the mouse had valid readings for at least 20 consecutive pulse beats. All studies were performed at the same hour each day.
Respirations were monitored continuously monitored by direct observation of the animal. Body core temperature was measured via rectal probe. Temperature control was performed using a water-circulating warming surface and heating lamp. Following a 15 minute period of stabilization mean systolic, diastolic and arterial blood pressure and mean pulse measurements were determined.

[3] = system: cutaneous perfusion in mice; assay type: in vivo, mouse
Description: Skin blood flow was measured using laser Doppler imaging (MoorLD1-2λ, Moor Instruments, Devon, England). Briefly, animals were placed in a prone position on a heating pad, and anesthesia was provided by 2% inhalation isoflurane in a 50:50 mixture of oxygen to room air. Core temperature was monitored by rectal probe and was further controlled with a heat lamp. The hair of the dorsum of the animals was clipped and depilated with Nare™ and a template with a 1 cm^2 area used to trace a region of interest (ROI). After equilibration to the experimental set-up analysis of cutaneous blood flow was obtained. The following instrument settings were used: override distance 21 cm; scan time 4 msec/pixel. Results are expressed as the change percent control from baseline of the ROI.

human platelets [4] = assay: Thrombin-induced human platelet aggregation; assay type: cell-based; conditions: for NO delay of thrombin-induced platelet aggregation: DEA/NO 10 μM
Summary of the method: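 Washed human platelets in Tyrode's buffer pH 7.4 (2×10^5/μl) are stirred at 1200 rpm and 37 °C, and optical aggregation is followed for 5 min; under static conditions, A400 is tracked for 5 min instead. TSP1 agents or 1 μM peptide C6d are pre-incubated for 15 min before thrombin ± DEA/NO (10 μM).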

human platelets [5] = assay: Human platelet adhesion assay; assay type: cell-based; conditions: fibrinogen vs collagen, 10 μM
Description: Bacteriological Petri dishes (35×10 mm, Becton Dickinson Labware) were pre-coated with collagen (3 μg/ml) or fibrinogen (15 μg/mL) overnight. Following aspiration of non-adherent matrix, dishes were blocked with 1% BSA. Fresh platelets were washed and suspended in Tyrode's buffer and allowed to adhere for 30 minutes. Plates were washed with PBS, fixed with 0.5% glutaraldehyde and stained with 0.02% toluidine blue. Adherent platelets were counted microscopically. In some experiments platelets were pre-incubated with the Rap1 geranylgeranyltransferase inhibitor GGTI-298 (10 μM) for 30 minutes prior to initiating adhesion.

Rap1 = Rap1 pulldown assay in platelets; assay type: cell-based, human; conditions: thrombin
Description: Platelets were diluted to 5×10^8 platelets/mL in Tyrode's buffer and treated with various reagents for the indicated times. Immediately following treatment, platelets were pelleted at 13,000 g for 30 seconds at 4° C. and resuspended in ice-cold lysis buffer containing 20 mM HEPES (pH 7.5), 100 mM NaCl, 10 mM EGTA, 20 mM MgCl2, 8 mM α-glycerophosphate, 1% Triton X-100, 1 mM phenylmethylsulfonylfluoride, 40 mM NaF, 1 mM Na3VO4, 10 μg/mL aprotinin, and 10 μg/mL leupeptin. Lysates were centrifuged at 13,000 g for 5 minutes at 4° C. and the supernatants were incubated for 15 minutes on a tumbler at 4° C. with glutathione Sepharose 4B beads (Amersham) prebound with a GST-Ral GDS RBD fusion protein (kind gift of J. Silvio Gutkind, NIH, Bethesda, Md.). Bead complexes were washed by centrifugation at 6,000 g for 30 seconds at 4° C. followed by resuspension in 0.5 mL lysis buffer; 2 washes were performed for each sample. After the second wash, beads were resuspended in an equal volume of 2×SDS sample buffer and stored at −20° C. For Western analysis, bead-bound proteins in sample buffer were boiled for 10 minutes and subjected to electrophoresis on NuPAGE 10% Bis-Tris gels (Invitrogen, Carlsbad, Calif.), transferred to Immobilon-P PVDF membranes (Millipore, Billerica, Mass.), and blotted with rabbit polyclonal anti-Rapt (sc-65; Santa Cruz Biotechnology, Santa Cruz, Calif.).

murine ASMC (CD47 null) = assay: Murine ASMC proliferation; assay type: cell-based, mouse; conditions: CD47 null MASMC
Description: (§1) Murine ASMC were obtained from aortic segments harvested sterilely from C57B1/6 CD47 null or CD36 null mice as described (Ray et al., Methods Cell Sci 23:185-188, 2001) and cultured in SM-GM (Cambrex)+20% FCS. In the case of CD36 null cells, culture flasks were pre-coated with 1% gelatin prior to cell plating. Wild type C57B1/6 ASMC cultures were prepared as previously described (Isenberg et al., Matrix Biol 24:110-123, 2005). Cell culture purity was determined by immunohistochemistry staining for α-smooth muscle actin. Cells were used within passage 1 to 4 to minimize overgrowth of other cell types.
Proliferation of vascular cells was measured with a non-radioactive colorimetric assay (CellTiter 96, Promega, Madison, Wis.). Briefly, to each well of a 96-well culture plate (Nunc, Denmark) 5×10^3 cells were suspended in 100 μl of culture medium with indicated treatments and incubated for 72 hours at 37° C. in a 5% CO2 atmosphere. Following incubation 20 μl of tetrazolium compound/solubilization agent was added and incubation continued for 4 hours under the same conditions. The plate was then read on a MR580 Microelisa Auto Reader (Dynatech) at a wavelength of 490 nm. Appropriate zero time controls were run for all assays and the optical density readings obtained then subtracted from those obtained at 72 hours.

[6] = system: murine ASMC (WT, CD36 null, CD47 null); assay: Intracellular cGMP in murine ASMC; assay type: cell-based, mouse; conditions: WT MASMC
Description: as §1
HUVEC (10^4 cells/well) grown overnight in 96-well culture plates containing full growth medium with 2% FCS and weaned in growth medium without additives and 1% FCS over 24 hrs before treatment with NO donors and other agents in SM-GM without additives+0.1% BSA. Intracellular cGMP levels were determined according to the manufacturer's instructions using an enzyme immunoassay kit (Amersham Biosciences). In other experiments ASMC from wild type and CD36 or CD47 null mice were plated onto 96-well culture plates and incubated overnight in full growth medium. They were then weaned off serum as described to SM-GM+0.1% BSA and treated with NO donor and other agents as indicated. Intracellular cyclic nucleotides were determined via immunoassay.

human platelets [7] = assay: cGMP in human platelets; assay type: cell-based; conditions: washed human platelets in Tyrode's buffer
Description: Fresh human platelets at 2×10^5 platelets/μl in Tyrode's buffer or PRP were pre-incubated with the indicated agents for 15 minutes and then challenged with DEA/NO for the indicated time interval at room temperature and total cGMP determined via immunoassay (Amersham, GE Healthcare, Buckinghamshire, UK). Murine WT and TSP1-null platelets were treated with DEA/NO and cGMP flux measured.

CCN(CC)/[N+]([O-])=N/O.CCNCC [DEA/NO, diethylamine NONOate]
magnitude of increased BOLD MRI signal ([1]; TSP1 null mice): 25% | decreased BOLD signal ([1]; TSP null mice): 14% | decreased BOLD signal ([1]; WT mice): 11% | magnitude of increased BOLD MRI signal ([1]; WT mice): 15% | 32P-incorporation into cGK-I selective peptide (cGK-I): strongly induced 32P-incorporation | blood pressure response ([2]; TSP1 null versus wild type): significantly greater decreases in blood pressure measurements | mean pulse [2]: tended to increase modestly | blood pressure response ([2]; awake wild type and TSP1-null mice): significant decreases in systolic, diastolic and mean arterial pressure | initial increase in cutaneous perfusion ([3]; rectal catheter bolus, core temperature 34.5° C.): significantly greater in TSP1 and CD47 null mice

CNC[C@H](O)c1ccc(O)c(O)c1 [epinephrine, Epinephrine hydrochloride]
lethality ([2]; CD47 null animals, 0.05 μg/animal i.p.): fatal | mean arterial pressure ([2]; TSP1 null animals, 0.05 μg/animal i.p.): did not show a significant increase | mean pulse [2]: moderately increased | mean arterial pressure ([2]; wild type animals, 0.05 μg/animal i.p.): expected increase in mean arterial pressure | cutaneous perfusion ([3]; wild type and TSP1 null animals, epinephrine bolus): increased cutaneous perfusion

COC(=O)[C@H](CC(C)C)NC(=O)c1ccc(NC[C@@H](N)CS)cc1-c1cccc2ccccc12 [GGTI-298, reference compound]
platelet aggregation at high shear in the presence of NO (human platelets [4]; GGTI-298 preincubation): preferentially delayed platelet aggregation | thrombin-stimulated adhesion of platelets (human platelets [5]): selective in adhesion assays for blocking thrombin-stimulated adhesion of platelets on fibrinogen | Rap1 activation (GTP loading) (Rap1): inhibits basal and partially inhibits thrombin-stimulated Rap1 activation

3TSR: recombinant type 1 repeats of TSP1
NO-stimulated proliferation (murine ASMC (CD47 null)): failed to inhibit | NO-stimulated cGMP [6]: inhibited NO-stimulated cGMP responses in WT | NO delay of thrombin-induced platelet aggregation (human platelets [4]; high shear, thrombin 0.2 U/ml): blocked the ability of NO to delay thrombin-induced aggregation | NO delay of thrombin-induced platelet aggregation (human platelets [4]; static / low shear conditions): reversed the NO delay of aggregation under static conditions | NO stimulated cGMP in platelets (human platelets [7]): inhibited NO stimulated cGMP flux

C[N+](C)(C)CCCCCC[N+](C)(C)C [hexamethonium, hexamethonium chloride]
cutaneous perfusion and survival after autonomic blockade ([3]; wild type and TSP1 null animals under isoflurane, 30 μg/gram i.v.): decreases in cutaneous perfusion and eventual cardiovascular collapse and death
